Source: patent US20110306606A1, “NOVEL 2,6-SUBSTITUTED-3-NITROPYRIDINE DERIVATIVE, METHOD FOR PREPARING SAME, AND PHARMACEUTICAL COMPOSITION INCLUDING SAME” (priority 2008, published 2011)
Where two headings read alike, the source gives them in different places.

Experiments:
[1] = tested on: Osteoblasts (Calvarial cells); conditions: ICR, mouse, 72 h, 1 μM
[2] = tested on: Osteoblasts (Calvarial cells); assay: Alkaline phosphatase (ALP) activity in osteoblasts (Calvarial cells); assay type: cell-based, mice; conditions: 1 μM compound, 3 days; for activity at 1 µM: Mus musculus, 72 h, Calvarial cell, read-out: ALP activity (1 μM, % of Control) Calvarial cell
Description: Differentiation and activity of osteoblasts were indirectly evaluated by measuring an ALP activity having a close relationship with osteogenesis.
Osteoblasts (Calvarial cells) prepared in Experimental Example 1 and MC3T3-E1 cells (available from RIKEN Cell Bank, Japan) were collected in α-MEM supplemented with 10% FBS, followed by cell counting. The cells were dispensed into 24-well cultureware at a density of 2×10^4 cells/well. After culturing of the cells for 24 hours, the culture media were discarded and replaced with fresh media in which test compounds were diluted to a concentration of 1 μM (1 mL/well). In addition, the vehicle control group containing 0.1% DMSO was also treated. […] When the experiment was terminated, the supernatant was removed and the cells were washed three times with cold phosphate buffer at 4°. 0.2% Triton X-100 was added to the washed cells which were then subjected to three cycles of freezing at −70° and thawing at room temperature for the complete lysis of cells. The cell extracts were pooled and centrifuged to collect the cell supernatant which was used for the measurement of ALP activity and proteins. The protein concentration was measured using a BCA assay kit (manufactured by Sigma-Aldrich). For the measurement of ALP activity, p-nitrophenylphosphate was added to the cell supernatant which was then incubated at 37° for 30 minutes, and the reaction was terminated with the addition of 50 μL of 0.2N sodium hydroxide. The standard curve was plotted at the absorbance of 405 nm using p-nitrophenol as a standard material and then the absorbance of test materials thus reacted was measured to determine the production amount of p-nitrophenol.
The ALP activity was calculated by dividing the amount of p-nitrophenol produced from each test material by the protein amount and the reaction time. Therefore, the unit of ALP activity was given in terms of p-nitrophenol/μg protein/min. The results are given in Tables 28-1 and 28-2 where the ALP activity unit of each test material was given in terms of % change through the comparison between the individual test materials and the vehicle control group.

[3] = tested on: Osteoblasts (Calvarial cells); assay: Cytotoxicity test (MTT); conditions: 1 μM compound, 72 hours, in comparison with vehicle control

| Structure (SMILES) | Cell viability (%) Calvarial cell [1] [%] | activity at 1 µM [2] [%] | ALP activity (1 μM, % of Control) Calvarial cell [2] | Cell viability (%) Calvarial cell [3] [%] |
| --- | --- | --- | --- | --- |
| Cc1ccc(Nc2nc(N3CCOCC3)ccc2[N+](=O)[O-])cc1 [Compound 14, 2-(4-methylphenylamino)-6-morpholino-3-nitropyridine] | 99 | 135 |  |  |
| CC(C)Nc1ccc([N+](=O)[O-])c(Nc2ccc(C(C)(C)C)cc2)n1 [Compound 31, 2-[4-(t-butyl)phenylamino]-6-(isopropylamino)-3-nitropyridine] | 108 | 134 |  |  |
| CNc1ccc([N+](=O)[O-])c(Nc2ccc(N)cc2)n1 [Compound 57, 2-[4-(amino)phenylamino]-6-(methylamino)-3-nitropyridine] | 103 | 112 |  |  |
| CC(C)Nc1ccc([N+](=O)[O-])c(Nc2ccc(N)cc2)n1 [Compound 58, 2-[4-(amino)phenylamino]-6-(isopropylamino)-3-nitropyridine] | 107 | 127 |  |  |
| CC(C)(C)Nc1ccc([N+](=O)[O-])c(Nc2ccc(N)cc2)n1 [Compound 60, 2-[4-(amino)phenylamino]-6-(t-butylamino)-3-nitropyridine] | 119 | 131 |  |  |
| Nc1cccc(Nc2nc(N3CCC(N)CC3)ccc2[N+](=O)[O-])c1 [Compound 79, 2-[3-(amino)phenylamino]-6-(4-aminopiperidino)-3-nitropyridine] | 99 | 133 |  |  |
| Nc1cccc(Nc2nc(NCc3cccnc3)ccc2[N+](=O)[O-])c1 [Compound 80, 2-[3-(amino)phenylamino]-6-[(3-pyridyl)methylamino]-3-nitropyridine] | 102 | 116 |  |  |
| Nc1cccc(Nc2nc(NCc3ccncc3)ccc2[N+](=O)[O-])c1 [Compound 81, 2-[3-(amino)phenylamino]-6-[(4-pyridyl)methylamino]-3-nitropyridine] | 100 | 123 |  |  |
| CNc1ccc([N+](=O)[O-])c(Nc2ccc(-n3ccnc3)cc2)n1 [Compound 86, 2-[4-(imidazol-1-yl)phenylamino]-6-(methylamino)-3-nitropyridine] | 111 | 144 |  |  |
| CC(C)Nc1ccc([N+](=O)[O-])c(Nc2ccc(-n3ccnc3)cc2)n1 [Compound 87, 2-[4-(imidazol-1-yl)phenylamino]-6-(isopropylamino)-3-nitropyridine] | 101 | 116 |  |  |
| O=[N+]([O-])c1ccc(N2CCC(O)CC2)nc1Nc1ccc(-n2ccnc2)cc1 [Compound 90, 2-[4-(imidazol-1-yl)phenylamino]-6-(4-hydroxypiperidino)-3-nitropyridine] | 106 | 161 |  |  |
| CC(=O)c1cccc(Nc2nc(N3CCC(O)CC3)ccc2[N+](=O)[O-])c1 [Compound 99, 2-(3-acetylphenylamino)-6-(4-hydroxypiperidino)-3-nitropyridine] | 104 | 189 |  |  |
| CC(=O)c1cccc(Nc2nc(NC(C)(C)C)ccc2[N+](=O)[O-])c1 [Compound 104, 2-(3-acetylphenylamino)-6-(t-butylamino)-3-nitropyridine] | 97 | 112 |  |  |
| CC(=O)c1cccc(Nc2nc(N3CCN(C)CC3)ccc2[N+](=O)[O-])c1 [Compound 105, 2-(3-acetylphenylamino)-6-(4-methylpiperazin-1-yl)-3-nitropyridine] | 90 | 121 |  |  |
| CC(=O)c1cccc(Nc2nc(N3CCOCC3)ccc2[N+](=O)[O-])c1 [Compound 107, 2-(3-acetylphenylamino)-6-morpholino-3-nitropyridine] | 97 | 121 |  |  |
| CC(C)CNc1ccc([N+](=O)[O-])c(Nc2ccc(N3CCOCC3)cc2)n1 [Compound 110, 2-(4-morpholinophenylamino)-6-(isobutylamino)-3-nitropyridine] | 112 | 143 |  |  |
| Cc1nc(-c2ccc(Nc3nc(NC(C)C)ccc3[N+](=O)[O-])cc2)cs1 [Compound 133, 2-[4-(2-methylthiazol-4-yl)phenylamino]-6-(isopropylamino)-3-nitropyridine] | 102 | 122 |  |  |
| Cc1nc(-c2ccc(Nc3nc(-n4ccnc4C(C)C)ccc3[N+](=O)[O-])cc2)cs1 [Compound 137, 2-[4-(2-methylthiazol-4-yl)phenylamino]-6-[(2-isopropyl)imidazol-1-yl]-3-nitropyridine] | 92 | 122 |  |  |
| Cc1nc(-c2ccc(Nc3nc(NC(C)(C)C)ccc3[N+](=O)[O-])cc2)cs1 [Compound 140, 2-[4-(2-methylthiazol-4-yl)phenylamino]-6-(t-butylamino)-3-nitropyridine] | 102 | 118 |  |  |
| NC1CCN(c2ccc([N+](=O)[O-])c(Nc3ccc(-c4csc(C5CCCCC5)n4)cc3)n2)CC1 [Compound 161, 2-[4-(2-cyclohexylthiazol-4-yl)phenylamino]-6-(4-aminopiperidino)-3-nitropyridine] | 98 | 121 |  |  |
| CC1=NCCN1c1ccc([N+](=O)[O-])c(Nc2ccc(N3CCC(N)CC3)c(F)c2)n1 [Compound 252, 2-{[3-fluoro-4-(4-aminopiperidino)]phenylamino}-6-[(2-methyl-4,5-dihydro)imidazol-1-yl]-3-nitropyridine] |  |  | 112 % of Control | 103 |
| NC1CCN(c2ccc(Nc3nc(N4CCNCC4)ccc3[N+](=O)[O-])cc2F)CC1 [Compound 253, 2-{[3-fluoro-4-(4-aminopiperidino)]phenylamino}-6-(piperazin-1-yl)-3-nitropyridine] |  |  | 115 % of Control | 104 |
| NC1CCN(c2ccc(Nc3nc(NCc4cccnc4)ccc3[N+](=O)[O-])cc2F)CC1 [Compound 257, 2-{[3-fluoro-4-(4-aminopiperidino)]phenylamino}-6-[(3-pyridyl)methylamino]-3-nitropyridine] |  |  | 122 % of Control | 101 |
| NC1CCN(c2ccc(Nc3nc(NCc4ccncc4)ccc3[N+](=O)[O-])cc2F)CC1 [Compound 258, 2-{[3-fluoro-4-(4-aminopiperidino)]phenylamino}-6-[(4-pyridyl)methylamino]-3-nitropyridine] |  |  | 115 % of Control | 101 |
